“Also recorded” adds a separate entry of the source.
Assays:
[1] = system: primary adipocytes; assay: Real-time PCR in primary adipocytes; format: cell-based, mice
Description: Primary adipocytes were treated with ASP overnight. […] Data represent means±SEM of 4 mice. P values were determined using One-way ANOVA. *p<0.05.
Primary adipocytes were treated with 40 μmol/L ASP (FIG. 22A) or different doses of ASP (FIG. 22B) for 24 hours. […] Scale bar, 50 μm (FIG. 22B). Data represent means±SEM of 4 experiments. P values were determined using One-way ANOVA. *p<0.05.
(§1) After induction of obesity in C57BL/6 male mice fed with the high-fat diet for twelve weeks, they were treated daily with ASP (50 mg/kg) via oral gavage for seven weeks in vivo study. C57BL/6 mice aortae were used for ex vivo studies. Endothelial cells, HepG2 and primary adipocytes were used for in vitro studies. Vascular function was determined by wire myograph. H&E staining was employed for histological examination. Oil Red O staining was used to determine lipid droplets in tissues and cells. DHE and MitoSOX staining were used to detect ROS levels. QPCR, aortic en-face immunofluorescence staining, and Western blotting were used to analyze mRNA and protein expressions. ARE binding activity was determined by Dual luciferase reporter assay. Small interfering (si)RNA of Nrf2 and HO-1, inhibitors of Nrf2 (ML385, Cat. No.: HY-100523) and HO-1 (OB-24, HY-118487) were used to elucidate the mechanistic pathway of ASP's action.

[2] = system: HepG2 cells; assay: DHE staining of palmitic acid-treated HepG2 cells; format: cell-based; conditions: Nrf2-inhibited HepG2 cells
Description: as §1

[3] = system: HO-1; assay: HO-1 expression in endothelial cells (western blotting, real-time PCR); format: cell-based
Description: (§2) After induction of obesity in C57BL/6 male mice fed with high fat diet for twelve weeks, they were treated daily with ASP (50 mg/kg) via oral gavage for seven weeks in vivo study. C57BL/6 mice aortae were used for ex vivo study and endothelial cells were used for in vitro study. Vascular function was determined by wire myograph. DHE and MitoSOX staining were used to detect ROS levels. QPCR, aortic en-face immunofluorescence staining, and Western blotting were used to analyze mRNA and protein expressions. Small interfering (si)RNA of Nrf2 and HO-1, inhibitors of Nrf2 (ML385, Cat. No.: HY-100523) and HO-1 (OB-24, HY-118487) were used to elucidate the mechanistic pathway of ASP's action.
as §1

[4] = system: Ho-1, Sirt1, Sirt3, Sirt6 and Sod2; assay: Real-time PCR of Nrf2 downstream genes in obese mice livers; format: in vivo
Description: as §1

[5] = system: Nrf2; assay: Real-time PCR of Nrf2 in obese mice aortas; format: in vivo
Description: as §2
as §1, with “QPCR, aortic en-face immunofluorescence staining, and Western blotting were used to analyze mRNA and protein expressions.” left out, “Small interfering (si)RNA of Nrf2 and HO-1, inhibitors of Nrf2 (ML385, Cat. No.: HY-100523) and HO-1 (OB-24, HY-118487) were used to elucidate the mechanistic pathway of ASP's action.” left out

[6] = system: Nrf2/ARE; assay: Dual-luciferase assay of ARE binding in PA-treated HepG2 cells; format: cell-based
Description: as §1

[7] = system: FAS, ACC2, SREBP1C, HSL; assay: Real-time PCR of lipid metabolism genes in PA-treated HepG2 cells; format: cell-based
Description: as §1

[8] = system: ICAM-1; assay: Real-time PCR of ICAM-1 in aortas of obese mice; format: in vivo
Description: as §2
as §1, with “QPCR, aortic en-face immunofluorescence staining, and Western blotting were used to analyze mRNA and protein expressions.” left out, “Small interfering (si)RNA of Nrf2 and HO-1, inhibitors of Nrf2 (ML385, Cat. No.: HY-100523) and HO-1 (OB-24, HY-118487) were used to elucidate the mechanistic pathway of ASP's action.” left out

[9] = system: ROS; assay: DHE staining of ROS in obese mice aortic sections; format: in vivo; conditions: ASP 50 mg/kg oral gavage daily for seven weeks
Description: as §2
as §1, with “QPCR, aortic en-face immunofluorescence staining, and Western blotting were used to analyze mRNA and protein expressions.” left out, “Small interfering (si)RNA of Nrf2 and HO-1, inhibitors of Nrf2 (ML385, Cat. No.: HY-100523) and HO-1 (OB-24, HY-118487) were used to elucidate the mechanistic pathway of ASP's action.” left out

[10] = system: perirenal adipose tissues; assay: Weight and sizes of perirenal adipose tissues in obese mice; format: in vivo
Description: as §1

[11] = system: HepG2 cells; assay: Oil Red O staining of PA-treated HepG2 cells; format: cell-based; conditions: Nrf2-inhibited HepG2 cells
Description: as §1

[12] = system: obese mice livers; assay: ATP levels in obese mice livers; format: in vivo
Description: as §1

[13] = system: VCAM-1 and ICAM-1; assay: Endothelial activation (VCAM-1 and ICAM-1) in endothelial cells; format: cell-based
Description: as §2
as §1, with “QPCR, aortic en-face immunofluorescence staining, and Western blotting were used to analyze mRNA and protein expressions.” left out, “Small interfering (si)RNA of Nrf2 and HO-1, inhibitors of Nrf2 (ML385, Cat. No.: HY-100523) and HO-1 (OB-24, HY-118487) were used to elucidate the mechanistic pathway of ASP's action.” left out

[14] = system: HO-1; assay: Aortic en-face immunofluorescence staining of HO-1; design: species or system mice
Description: as §2, §1

[15] = endothelial cells under basal conditions
[16] = obese mice aortae, ASP 50 mg/kg oral gavage daily for seven weeks

## Asperuloside
[1]; primary adipocytes treated with ASP overnight
  mRNA expression levels of Nprc and Cd36: dose-dependently decreases mRNA expression levels of Nprc (FIG. 21A) and Cd36
[1]; primary adipocytes, different doses of ASP for 24 hours
  mRNA expression of Nrf2: dose-dependently increases mRNA expression of Nrf2
[1]; primary adipocytes, worded as embodiment, cf. FIG. 22B
  increase of Nrf2 mRNA expression: at least 1.2 fold
[2]
  palmitic acid-induced oxidative stress (DHE staining): fails to attenuate palmitic acid-induced oxidative stress
[3]; IL-1β, ML385-treated cells
  HO-1 mRNA: fails to restore IL-1β-mediated downregulation of HO-1 protein (FIG. 4B) and mRNA
  HO-1 protein: fails to restore IL-1β-mediated downregulation of HO-1 protein
[3]; Nrf2-silenced cells
  HO-1 upregulation (western blotting): ASP-induced upregulation of HO-1 is eliminated; also recorded: Nrf2 knockdown attenuated HO-1 upregulation by ASP
[3]; [15]
  HO-1 expression (western blotting): dose-dependently upregulated HO-1 expression
  HO-1 mRNA (real-time PCR): dose-dependently increases HO-1 mRNA
[4]; obese mice livers
  gene expressions of Ho-1, Sirt1, Sirt3, Sirt6 and Sod2: upregulates gene expressions of Ho-1, Sirt1, Sirt3, Sirt6 and Sod2
[4]; worded as embodiment, cf. FIG. 13C
  increase of HO-1 mRNA expression in the liver: about 2.5 fold
[5]; [16]
  increase of Nrf2 expression: about 1.5 fold
[5]; obese mice aortas, real-time PCR
  Nrf2 mRNA expression level: increases mRNA expression level of Nrf2
[6]; 250 μmol/L PA-treated HepG2 cells for 16 hours
  binding activity of ARE: dose-dependently increases the binding activity of ARE
[6]; palmitic acid-impaired HepG2 cells, worded as embodiment, cf. FIG. 13E
  increase of Nrf2/ARE binding: about 2 fold
[7]; Nrf2-inhibited HepG2 cells
  mRNA levels of FAS, ACC2 and SREBP1C: fails to decrease its expression levels
[7]; PA-treated HepG2 cells
  PA-stimulated overexpression of mRNA levels of FAS, ACC2 and SREBP1C: inhibited by ASP treatment
[7]; palmitic acid, Nrf2-inhibited HepG2 cells
  HSL mRNA expression: fails to restore palmitic acid-decreased HSL mRNA expression
[8]; aortas of obese mice, real-time PCR
  ICAM-1 mRNA expression: decreases elevated expression of VCAM-1 and ICAM-1 mRNA
[8]; [16]
  reduction of ICAM-1 expression: about 2 fold
[9]
  ROS generation / oxidative stress (DHE staining): suppresses elevated ROS generation; also recorded: suppressed oxidative stress
[10]; obese mice
  ratio of perirenal adipose tissues to body weight: decreased
  sizes of adipocytes (H&E staining): remarkably reduces the sizes of adipocytes
[10]; worded as embodiment, cf. FIGS. 14A-14B
  decrease of perirenal adipose tissues in weight and sizes, average: about 35%
[11]
  PA-induced lipid accumulation (Oil Red O): fails to alleviate PA-induced lipid accumulation
[12]
  ATP levels: increases ATP levels
[13]; HO-1-silencing (HO-1-siRNA transfected) endothelial cells
  endothelial activation: fails to decrease ROS level (FIG. 2E) or inhibit endothelial activation; also recorded: failed to prevent endothelial dysfunction in HO-1 inhibited aortae (FIGS. 2A-2D) and HO-1-siRNA transfected endothelial cells
[13]; endothelial cells
  overexpression of VCAM-1 and ICAM-1: inhibits overexpression of VCAM-1 and ICAM-1
[14]; EC-specific knockdown of Nrf2
  HO-1 expression (en-face immunofluorescence): EC-specific knockdown of Nrf2 abolishes the upregulation of HO-1 by ASP treatment
[14]; OB-24-treated aortas
  HO-1 expression (en-face immunofluorescence): fails to increase HO-1 expression
